In PubChem BioAssay (NCI):
Values joined by “and” are separate entries in the source; they are usually repeats but may differ in a detail not shown here. Equal values may be shown once.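 Cultured in 96-well plates, cells were exposed to test compound for 48 hours across five concentrations. Abbreviation: GI50, concentration required for 50% inhibition of growth. At the TGI there is no net growth.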

How the values were obtained:
Experiment in all cases: NCI anticancer screen, dose series, 48 h
SW-620 colon = test system: SW-620 colon
PC-3 prostate = test system: PC-3 prostate
CCRF-CEM leukemia = test system: CCRF-CEM leukemia
SK-MEL-5 melanoma = test system: SK-MEL-5 melanoma
HOP-62 NSCLC = test system: HOP-62 NSCLC
A498 renal = test system: A498 renal
RPMI-8226 leukemia = test system: RPMI-8226 leukemia
MCF7 breast = test system: MCF7 breast
SF-539 CNS = test system: SF-539 CNS
EKVX NSCLC = test system: EKVX NSCLC

## Cn1cc(-c2nn3cc(-c4cccs4)nc3s2)c2cc(F)ccc21
SW-620 colon
  GI50: 0.478 µM
  TGI: > 100 µM
PC-3 prostate
  GI50: 3.19 µM
  TGI: > 100 µM
CCRF-CEM leukemia
  GI50: 2.54 µM
  TGI: > 100 µM
SK-MEL-5 melanoma
  GI50: 1.8 µM
  TGI: 12.9 µM
HOP-62 NSCLC
  GI50: 1.92 µM
  TGI: 23.1 µM
A498 renal
  GI50: 4.09 µM
  TGI: 50 µM
RPMI-8226 leukemia
  GI50: 3.01 µM
  TGI: 26.5 µM
MCF7 breast
  GI50: 0.836 µM
  TGI: 30 µM
SF-539 CNS
  GI50: 2.18 µM
  TGI: 7.54 µM
EKVX NSCLC
  GI50: 2.51 µM
  TGI: > 100 µM

## CCCCCCCCCCCCNC(=O)[C@H]1CSC(c2ccc(OC)c(F)c2)N1 (stereo partly specified)
SW-620 colon
  GI50: 0.87 µM
  TGI: 2.81 µM
PC-3 prostate
  GI50: 0.38 µM
  TGI: 1.43 µM
CCRF-CEM leukemia
  GI50: 0.225 µM
  TGI: 0.579 µM
SK-MEL-5 melanoma
  GI50: 1.27 µM
  TGI: 2.57 µM
HOP-62 NSCLC
  GI50: 0.273 µM
  TGI: 0.748 µM
A498 renal
  GI50: 1.78 µM
  TGI: 3.28 µM
RPMI-8226 leukemia
  GI50: 2.06 µM
  TGI: 4.62 µM
MCF7 breast
  GI50: 1.55 µM
  TGI: 3.31 µM
SF-539 CNS
  GI50: 0.785 µM
  TGI: 2.14 µM
EKVX NSCLC
  GI50: 0.678 µM
  TGI: 2 µM

## Cc1cc2c(cc1Cl)SC1=NN(C)C(c3ccccc3O)N1S2(=O)=O (stereo unspecified)
SW-620 colon
  GI50: 94.5 µM
  TGI: > 100 µM
PC-3 prostate
  GI50: > 100 µM
  TGI: > 100 µM
CCRF-CEM leukemia
  GI50: 75.4 µM
  TGI: > 100 µM
SK-MEL-5 melanoma
  GI50: 57 µM
  TGI: > 100 µM
HOP-62 NSCLC
  GI50: 88.5 µM
  TGI: > 100 µM
A498 renal
  GI50: > 100 µM
  TGI: > 100 µM
RPMI-8226 leukemia
  GI50: > 100 µM
  TGI: > 100 µM
MCF7 breast
  GI50: > 100 µM
  TGI: > 100 µM
SF-539 CNS
  GI50: 32.1 µM
  TGI: > 100 µM
EKVX NSCLC
  GI50: 81.7 µM
  TGI: > 100 µM

## OCCCCC#Cc1ccccc1C#Cc1cnccn1
SW-620 colon
  GI50: 62.6 µM
  TGI: > 100 µM
PC-3 prostate
  GI50: 34.6 µM
  TGI: > 100 µM
CCRF-CEM leukemia
  GI50: 26.9 µM
  TGI: > 100 µM
SK-MEL-5 melanoma
  GI50: 38.2 µM
  TGI: > 100 µM
HOP-62 NSCLC
  GI50: 41 µM
  TGI: > 100 µM
A498 renal
  GI50: 13.5 µM
  TGI: 53.9 µM
RPMI-8226 leukemia
  GI50: 26.7 µM
  TGI: > 100 µM
MCF7 breast
  GI50: 44.6 µM
  TGI: > 100 µM
SF-539 CNS
  GI50: 53.8 µM
  TGI: > 100 µM
EKVX NSCLC
  GI50: 36.5 µM
  TGI: 95.3 µM

## COc1cc(C(=O)N/N=C/c2cccc([N+](=O)[O-])c2)cc(OC)c1OC
SW-620 colon
  GI50: 3.15 µM
  TGI: > 100 µM
PC-3 prostate
  GI50: 2.92 µM
  TGI: > 100 µM
CCRF-CEM leukemia
  GI50: 4.52 µM
  TGI: > 100 µM
SK-MEL-5 melanoma
  GI50: 2.76 µM
  TGI: > 100 µM
HOP-62 NSCLC
  GI50: 18.4 µM
  TGI: > 100 µM
A498 renal
  GI50: 1.79 µM
  TGI: 7.29 µM
RPMI-8226 leukemia
  GI50: 5.39 µM
  TGI: > 100 µM
MCF7 breast
  GI50: 4.49 µM
  TGI: > 100 µM
SF-539 CNS
  GI50: 3.28 µM
  TGI: 16.9 µM
EKVX NSCLC
  GI50: 18.7 µM
  TGI: > 100 µM

## CC1SC2(CCCCC2)N(NC(=O)c2[nH]c3ccc(F)cc3c2-c2ccccc2)C1=O (stereo unspecified)
SW-620 colon
  GI50: > 100 µM
  TGI: > 100 µM
PC-3 prostate
  GI50: 41.2 µM
  TGI: > 100 µM
CCRF-CEM leukemia
  GI50: > 100 µM
  TGI: > 100 µM
SK-MEL-5 melanoma
  GI50: > 100 µM
  TGI: > 100 µM
HOP-62 NSCLC
  GI50: 19.7 µM
  TGI: 60.9 µM
A498 renal
  GI50: > 100 µM
  TGI: > 100 µM
RPMI-8226 leukemia
  GI50: 41.2 µM
  TGI: > 100 µM
MCF7 breast
  GI50: > 100 µM
  TGI: > 100 µM
SF-539 CNS
  GI50: > 100 µM
  TGI: > 100 µM
EKVX NSCLC
  GI50: > 100 µM
  TGI: > 100 µM

## CCN(CC)CCOc1ccc(C2=C(c3ccccc3)CCc3cc(OC)ccc32)cc1
SW-620 colon
  GI50: 2.78 µM
  TGI: 8.09 µM
PC-3 prostate
  GI50: 7.66 µM
  TGI: > 51.1 µM
CCRF-CEM leukemia
  GI50: 5.59 µM
  TGI: > 49.3 µM
SK-MEL-5 melanoma
  GI50: 0.811 µM
  TGI: 2.29 µM
HOP-62 NSCLC
  GI50: 3.08 µM
  TGI: 9.6 µM
A498 renal
  GI50: 4.23 µM
  TGI: 9.44 µM
RPMI-8226 leukemia
  GI50: 2.62 µM
  TGI: 11.3 µM
MCF7 breast
  GI50: 0.547 µM
  TGI: 2.62 µM
SF-539 CNS
  GI50: 1.52 µM
  TGI: 2.89 µM
EKVX NSCLC
  GI50: 3.44 µM
  TGI: 14 µM

## COc1cc(OC)cc(N2CCN(C(=O)Nc3nc4cc(F)ccc4nc3OC)CC2)c1
SW-620 colon
  GI50: 0.0283 µM and 0.0372 µM and 0.0395 µM
  TGI: > 100 µM
PC-3 prostate
  GI50: 0.116 µM and 0.0312 µM and 0.033 µM
  TGI: 40.7 µM and 22.9 µM
CCRF-CEM leukemia
  GI50: 0.0899 µM and 0.0338 µM and 0.0345 µM
  TGI: > 100 µM
SK-MEL-5 melanoma
  GI50: < 0.023 µM and 0.0297 µM and 0.023 µM
  TGI: 0.294 µM and 0.399 µM and 0.16 µM
HOP-62 NSCLC
  GI50: 0.0346 µM and 0.0573 µM and 0.051 µM
  TGI: 58.7 µM and 25.2 µM
A498 renal
  GI50: < 0.0164 µM and 0.0126 µM
RPMI-8226 leukemia
  GI50: < 0.0182 µM and 0.0386 µM and 0.0416 µM
  TGI: 13.8 µM and 20 µM
MCF7 breast
  GI50: 0.0239 µM and 0.0265 µM and 0.0142 µM
  TGI: 24.7 µM and 22.8 µM
SF-539 CNS
  GI50: 0.0195 µM and 0.0228 µM and 0.0136 µM
EKVX NSCLC
  GI50: 0.0543 µM and 0.345 µM and 0.0636 µM
  TGI: > 87.1 µM and 66.6 µM

## C[C@H](NC(=O)CCC(F)(F)F)C(=O)N[C@@H]1C(=O)N(CCO)c2ncccc2-c2ccccc21
SW-620 colon
  GI50: > 100 µM
  TGI: > 100 µM
PC-3 prostate
  GI50: > 100 µM
  TGI: > 100 µM
CCRF-CEM leukemia
  GI50: > 100 µM
  TGI: > 100 µM
SK-MEL-5 melanoma
  GI50: > 100 µM
  TGI: > 100 µM
HOP-62 NSCLC
  GI50: > 100 µM
  TGI: > 100 µM
A498 renal
  GI50: > 100 µM
  TGI: > 100 µM
RPMI-8226 leukemia
  GI50: > 100 µM
  TGI: > 100 µM
MCF7 breast
  GI50: > 100 µM
  TGI: > 100 µM
SF-539 CNS
  GI50: > 100 µM
  TGI: > 100 µM
EKVX NSCLC
  GI50: > 100 µM
  TGI: > 100 µM

## Nc1ccc2c(c1)CN1C(=O)c3ccccc3C1=N2
SW-620 colon
  TGI: > 125 µM
PC-3 prostate
  TGI: > 125 µM
CCRF-CEM leukemia
  GI50: 37.6 µM
  TGI: > 90 µM
SK-MEL-5 melanoma
  TGI: 90.9 µM
HOP-62 NSCLC
  GI50: 45.7 µM
  TGI: 23.8 µM
A498 renal
  TGI: 104 µM
RPMI-8226 leukemia
  GI50: 34.1 µM
  TGI: > 125 µM
MCF7 breast
  TGI: > 78.9 µM
SF-539 CNS
  GI50: 5.29 µM
  TGI: 95.8 µM
EKVX NSCLC
  GI50: 72.2 µM
  TGI: > 125 µM

## CCCOc1c2cc(COC3OC(CO)C(O)C(O)C3O)cc1Cc1cc(COC3OC(CO)C(O)C(O)C3O)cc(c1OCCC)Cc1cc(COC3OC(CO)C(O)C(O)C3O)cc(c1OCCC)Cc1cc(COC3OC(CO)C(O)C(O)C3O)cc(c1OCCC)C2 (stereo unspecified)
SW-620 colon
  GI50: 99.9 µM and > 100 µM and 15.6 µM
  TGI: > 100 µM and 36.2 µM
PC-3 prostate
  GI50: > 100 µM and 17.2 µM
  TGI: > 100 µM and 46.2 µM
CCRF-CEM leukemia
  GI50: 7.52 µM and 17.6 µM
  TGI: > 100 µM and 36.5 µM
SK-MEL-5 melanoma
  GI50: 96.7 µM and > 100 µM and 17.1 µM
  TGI: > 100 µM and 32.7 µM
HOP-62 NSCLC
  GI50: > 100 µM and 29.2 µM
  TGI: > 100 µM and 93.7 µM
A498 renal
  GI50: 88.4 µM and > 100 µM and 16.3 µM
  TGI: > 100 µM and 42.5 µM
RPMI-8226 leukemia
  TGI: > 100 µM
MCF7 breast
  GI50: 53.7 µM and > 100 µM and 19.4 µM
  TGI: > 100 µM and 44.3 µM
SF-539 CNS
  GI50: > 100 µM and 25 µM
  TGI: > 100 µM and 79.8 µM
EKVX NSCLC
  GI50: > 100 µM and 35.5 µM
  TGI: > 100 µM

## N#CC1(C#N)C2C=CC(C3CCC=C32)C1(C#N)C#N (stereo unspecified)
SW-620 colon
  TGI: 3.32 µM
PC-3 prostate
  TGI: > 10 µM
CCRF-CEM leukemia
  TGI: > 7.86 µM
SK-MEL-5 melanoma
  TGI: > 10 µM
HOP-62 NSCLC
  TGI: > 10 µM
A498 renal
  TGI: > 10 µM
RPMI-8226 leukemia
  TGI: 8.79 µM
MCF7 breast
  TGI: > 10 µM
SF-539 CNS
  TGI: > 10 µM
EKVX NSCLC
  TGI: > 10 µM

## COc1ccc(N=C2NN=C(c3c[nH]c4ccccc34)CS2)cc1OC
SW-620 colon
  GI50: 5.68 µM
  TGI: > 60.4 µM
PC-3 prostate
  TGI: > 45.8 µM
CCRF-CEM leukemia
  GI50: 3.7 µM
  TGI: > 100 µM
SK-MEL-5 melanoma
  GI50: 3.6 µM
  TGI: 23.4 µM
HOP-62 NSCLC
  GI50: 12.7 µM
  TGI: > 84.1 µM
A498 renal
  GI50: 4.43 µM
  TGI: > 61.3 µM
RPMI-8226 leukemia
  GI50: 3.66 µM
  TGI: > 29.6 µM
MCF7 breast
  GI50: 5.21 µM
  TGI: > 75.5 µM
SF-539 CNS
  GI50: 8.25 µM
  TGI: > 100 µM
EKVX NSCLC
  GI50: 8.77 µM
  TGI: > 100 µM
